The results in this text go back to patent US20220242870A1, “HETEROCYCLE-FUSED PYRIMIDINE DERIVATIVE AND USE THEREOF” (VORONOI Inc., priority 2019, published 2022).

This test concerns the target T1, human FLT3-ITD enzyme (Homo sapiens, UniProt P36888).
T1 sequence (P36888 1-993): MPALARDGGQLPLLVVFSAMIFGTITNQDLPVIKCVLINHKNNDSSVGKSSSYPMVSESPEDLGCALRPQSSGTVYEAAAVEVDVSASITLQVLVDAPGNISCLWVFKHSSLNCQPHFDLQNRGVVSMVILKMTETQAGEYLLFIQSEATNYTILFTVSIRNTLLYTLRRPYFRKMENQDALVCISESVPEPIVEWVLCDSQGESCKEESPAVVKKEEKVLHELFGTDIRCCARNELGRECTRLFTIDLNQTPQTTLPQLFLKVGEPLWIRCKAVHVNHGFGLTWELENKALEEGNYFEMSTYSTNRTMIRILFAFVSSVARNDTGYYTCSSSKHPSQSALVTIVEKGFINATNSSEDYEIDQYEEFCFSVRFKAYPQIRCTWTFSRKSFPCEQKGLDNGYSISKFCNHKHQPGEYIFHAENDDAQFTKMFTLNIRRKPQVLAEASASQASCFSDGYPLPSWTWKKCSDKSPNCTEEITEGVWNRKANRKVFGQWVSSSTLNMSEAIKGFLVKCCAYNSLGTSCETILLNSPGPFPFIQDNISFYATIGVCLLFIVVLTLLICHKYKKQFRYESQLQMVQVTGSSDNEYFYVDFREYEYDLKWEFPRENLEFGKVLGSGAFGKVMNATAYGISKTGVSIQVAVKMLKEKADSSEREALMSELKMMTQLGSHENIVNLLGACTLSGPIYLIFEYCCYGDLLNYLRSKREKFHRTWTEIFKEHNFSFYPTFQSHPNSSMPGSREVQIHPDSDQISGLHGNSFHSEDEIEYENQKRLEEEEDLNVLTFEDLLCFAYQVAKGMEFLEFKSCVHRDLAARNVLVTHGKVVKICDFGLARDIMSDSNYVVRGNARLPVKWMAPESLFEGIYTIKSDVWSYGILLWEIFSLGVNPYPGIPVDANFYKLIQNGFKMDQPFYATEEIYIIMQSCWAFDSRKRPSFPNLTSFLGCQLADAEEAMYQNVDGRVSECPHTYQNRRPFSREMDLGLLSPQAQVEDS
In words: FLT3 enzyme inhibitory ability (ADP-Glo kinase assay). Format: biochemical. As to conditions: human FLT3-ITD enzyme 10 ng, ATP 10 μM, 25° C. 1 hour. As for the experimental part:
The inhibitory activities of the example compounds according to the present invention to the FLT3-ITD enzyme were evaluated. Specifically, the compound of the present invention was reacted with a purified human FLT3-ITD enzyme (Signalchem). A composition of 40 mM Tris-HCl pH 7.4, 20 mM MgCl2, 0.5 mg/mL BSA and 50 μM DTT was used as a reaction buffer, and reactions of all test matters were performed on the reaction buffer. Upon the test, human FLT3-ITD enzyme (10 ng), purified ATP (10 μM) and a specific substrate solution were reacted at 25° C. for 1 hour, and then the enzyme activity was identified using an in vitro ADP-Glo™ kinase assay (Promega). The enzyme activity reaction solution, the ADP-Glo reaction solution and the enzyme ability detection solution were reacted in a ratio of 2:2:1, and the activity inhibition degree of the enzyme was measured as luminescence. Using the solvent-treated group that was not treated with the compound as a control group, the enzyme activity inhibition degree according to the treatment concentration of each compound was calculated based on the enzyme activity fluorescence degree, and the concentration of each compound that inhibited 50%, IC50 (nM), was determined using Prism Software (version 5.01, GraphPad).

Molecules are shown by their SMILES.

`COc1cc(-c2cnn(C)c2)ccc1Nc1nc(N2N=CCC2c2ccccc2)c2sccc2n1` (stereo not shown) [Example 42, N-(2-methoxy-4-(1-methyl-1H-pyrazol-4-yl)phenyl)-4-(5-phenyl-4,5-dihydro-1H-pyrazol-1-yl)thieno[3,2-d]pyrimidin-2-amine]: the IC50 was greater than 500 nM.

`Cc1cc(Nc2nc(N3N=CCC3c3ccccc3)c3sccc3n2)cc(C)c1OCCCN1CCCC1` (stereo not shown) [Example 49, N-(3,5-dimethyl-4-(3-(pyrrolidin-1-yl)propoxy)phenyl)-4-(5-phenyl-4,5-dihydro-1H-pyrazol-1-yl)thieno[3,2-d]pyrimidin-2-amine] yielded an IC50 greater than 500 nM.

Regarding `Cc1cc(Nc2nc(N3N=CCC3c3ccccc3)c3sccc3n2)cc(C)c1OCCCN1CCN(C)CC1` (stereo not shown) [Example 50, N-(3,5-dimethyl-4-(3-(4-methylpiperazin-1-yl)propoxy)phenyl)-4-(5-phenyl-4,5-dihydro-1H-pyrazol-1-yl)thieno[3,2-d]pyrimidin-2-amine], the IC50 was greater than 500 nM.

In turn, `CN1CCN(c2ccc(Nc3nc(N4N=CCC4c4ccccc4)c4sccc4n3)cc2C(F)(F)F)CC1` (stereo not shown) [Example 53, N-(4-(4-methylpiperazin-1-yl)-3-(trifluoromethyl)phenyl)-4-(5-phenyl-4,5-dihydro-1H-pyrazol-1-yl)thieno[3,2-d]pyrimidin-2-amine] had an IC50 greater than 500 nM.

On to `CN1CCN(Cc2ccc(Nc3nc(N4N=CCC4c4ccccc4)c4sccc4n3)cc2C(F)(F)F)CC1` (stereo not shown) [Example 54, N-(4-((4-methylpiperazin-1-yl)methyl)-3-(trifluoromethyl)phenyl)-4-(5-phenyl-4,5-dihydro-1H-pyrazol-1-yl)thieno[3,2-d]pyrimidin-2-amine], for which the IC50 is greater than 500 nM.

Regarding `CN1CCN(C2CCN(c3c(F)cc(Nc4nc(N5N=CCC5c5ccccc5)c5sccc5n4)cc3F)CC2)CC1` (stereo not shown) [Example 55, N-(3,5-difluoro-4-(4-(4-methylpiperazin-1-yl)piperidin-1-yl)phenyl)-4-(5-phenyl-4,5-dihydro-1H-pyrazol-1-yl)thieno[3,2-d]pyrimidin-2-amine], the 50% inhibitory concentration (IC50) was greater than 500 nM.

`CCN1CCN(c2c(F)cc(Nc3nc(N4N=CCC4c4ccccc4)c4sccc4n3)cc2F)CC1` (stereo not shown) [Example 56, N-(4-(4-ethylpiperazin-1-yl)-3,5-difluorophenyl)-4-(5-phenyl-4,5-dihydro-1H-pyrazol-1-yl)thieno[3,2-d]pyrimidin-2-amine] displayed an IC50 greater than 500 nM.

Broadly, the IC50 is the point on the concentration scale where inhibition reaches its midpoint. The low end stands for greater potency in that assay, the high end for weaker potency in that assay.
